Active and inactive are the calls of the source.
What was measured:
[1] = A Cell Based Secondary Assay To Explore Cytotoxicity of Compounds that Sensitize Mycobacterium Tuberculosis to Beta-Lactam Antibiotics.; type: functional
Estrogen receptor beta = Estrogen receptor beta (Homo sapiens, UniProt Q92731);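 note: recombinant ER-beta bound to coactivator SRC1 peptide in presence of estradiol agonist; inhibitors block coactivator peptide binding and lower the FRET signal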
[2] = viability loss of HPDE-C7K cells – cell-based, fluorescence, HTS, primary screen (AID 431); type: functional; conditions: Homo sapiens
[3] = HPDE-C7 pancreatic duct cell viability loss – fluorescence, HTS (AID 430); type: functional, cell-based; conditions: Homo sapiens
[4] = target: T1, Endoribonuclease toxin MazF (Escherichia coli K-12, UniProt P0AE70); test: activation of MazEF endoribonuclease cleavage – biochemical, fluorescence, single-stranded RNA substrate, uHTS hits, dose response (AID 588481); type: functional
T1 sequence (P0AE70 whole entry): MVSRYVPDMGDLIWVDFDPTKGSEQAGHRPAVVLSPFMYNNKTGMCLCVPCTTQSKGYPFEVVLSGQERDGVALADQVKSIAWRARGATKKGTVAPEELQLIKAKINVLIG

[5] = target: T1, Endoribonuclease toxin MazF; test: substrate-only fluorescence increase artefacts – biochemical, single-stranded RNase substrate, counter-screen for MazEF activator project, dose response (AID 588502); type: functional
fMet-Leu-Phe receptor = target: T2, fMet-Leu-Phe receptor (Homo sapiens, UniProt P21462); test: formyl peptide receptor binders – dose response (AID 519); type: functional
T2 sequence (P21462 whole entry): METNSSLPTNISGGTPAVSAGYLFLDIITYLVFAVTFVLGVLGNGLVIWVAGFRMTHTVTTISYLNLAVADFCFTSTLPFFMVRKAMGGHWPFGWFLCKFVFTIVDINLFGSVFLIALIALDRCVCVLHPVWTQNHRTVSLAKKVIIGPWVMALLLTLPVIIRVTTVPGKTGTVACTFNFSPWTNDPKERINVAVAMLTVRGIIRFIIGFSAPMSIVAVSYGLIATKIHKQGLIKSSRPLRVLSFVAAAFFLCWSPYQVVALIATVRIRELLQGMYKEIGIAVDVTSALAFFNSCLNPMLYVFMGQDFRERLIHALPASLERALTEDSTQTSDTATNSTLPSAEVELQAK

[6] = target: T3, Replicative DNA helicase DnaB (Mycobacterium tuberculosis, UniProt P9WMR3); test: DnaB intein splicing inhibitors, dose response, biochemical, cell-free fluorescence (AID 449749); type: functional
T3 sequence (P9WMR3 whole entry): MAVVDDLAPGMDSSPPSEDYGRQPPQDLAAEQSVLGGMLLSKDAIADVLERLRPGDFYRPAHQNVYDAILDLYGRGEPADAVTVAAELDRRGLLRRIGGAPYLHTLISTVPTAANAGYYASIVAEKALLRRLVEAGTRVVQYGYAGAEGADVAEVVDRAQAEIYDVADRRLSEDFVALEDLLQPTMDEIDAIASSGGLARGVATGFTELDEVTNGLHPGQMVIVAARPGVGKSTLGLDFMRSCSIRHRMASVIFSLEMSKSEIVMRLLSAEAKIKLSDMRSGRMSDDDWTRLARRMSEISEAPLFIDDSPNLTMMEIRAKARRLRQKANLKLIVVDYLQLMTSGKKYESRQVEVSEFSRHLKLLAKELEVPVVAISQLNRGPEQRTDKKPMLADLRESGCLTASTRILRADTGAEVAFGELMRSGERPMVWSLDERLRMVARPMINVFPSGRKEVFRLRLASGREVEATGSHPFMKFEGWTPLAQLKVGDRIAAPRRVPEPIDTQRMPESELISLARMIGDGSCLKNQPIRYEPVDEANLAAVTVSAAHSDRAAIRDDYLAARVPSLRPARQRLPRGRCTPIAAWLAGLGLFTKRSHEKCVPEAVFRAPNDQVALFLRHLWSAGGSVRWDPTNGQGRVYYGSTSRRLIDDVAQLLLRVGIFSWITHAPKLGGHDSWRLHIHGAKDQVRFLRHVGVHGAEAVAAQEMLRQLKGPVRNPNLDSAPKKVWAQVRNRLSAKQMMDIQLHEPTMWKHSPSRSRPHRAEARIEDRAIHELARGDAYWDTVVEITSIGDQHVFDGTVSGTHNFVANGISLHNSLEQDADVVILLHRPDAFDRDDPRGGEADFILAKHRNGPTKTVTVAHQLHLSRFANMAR

Protein RecA = target: T4, Protein RecA (Mycobacterium tuberculosis, UniProt P9WHJ3); test: Fluorescence Cell-Free Homogeneous Dose Retest to Identify Inhibitors of RecA-Intein Splicing Activity. [Related pubchem assays (depositor defined):AID2097, AID2223, AID489010, AID492950]; type: functional
T4 sequence (P9WHJ3 whole entry): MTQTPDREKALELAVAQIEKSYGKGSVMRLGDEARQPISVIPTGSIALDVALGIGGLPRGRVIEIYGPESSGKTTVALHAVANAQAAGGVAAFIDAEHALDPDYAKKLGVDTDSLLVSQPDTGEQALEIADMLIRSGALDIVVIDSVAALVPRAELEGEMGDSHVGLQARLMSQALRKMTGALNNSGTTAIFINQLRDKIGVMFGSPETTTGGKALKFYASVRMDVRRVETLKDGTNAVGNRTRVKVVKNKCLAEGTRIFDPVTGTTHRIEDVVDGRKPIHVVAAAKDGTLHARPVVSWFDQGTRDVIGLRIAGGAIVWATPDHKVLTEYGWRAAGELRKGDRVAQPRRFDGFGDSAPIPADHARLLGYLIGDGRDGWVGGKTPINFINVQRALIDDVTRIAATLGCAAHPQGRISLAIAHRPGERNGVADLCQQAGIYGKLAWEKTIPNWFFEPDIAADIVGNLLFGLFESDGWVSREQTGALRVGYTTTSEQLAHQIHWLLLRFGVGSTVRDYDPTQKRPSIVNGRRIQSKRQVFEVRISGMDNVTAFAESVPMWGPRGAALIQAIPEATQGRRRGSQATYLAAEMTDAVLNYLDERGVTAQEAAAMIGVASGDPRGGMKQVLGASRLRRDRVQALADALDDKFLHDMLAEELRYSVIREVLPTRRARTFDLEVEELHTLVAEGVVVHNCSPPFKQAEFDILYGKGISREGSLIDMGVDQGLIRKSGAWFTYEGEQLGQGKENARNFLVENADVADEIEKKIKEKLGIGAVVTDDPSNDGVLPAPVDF

[7] = target: Eukaryotic translation initiation factor 4E (Mus musculus, UniProt P63073); test: blockers of eIF4G binding by eIF4E – biochemical, TR-FRET, dose response (AID 855); type: functional;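 note: potency for disrupting eIF4E binding to eIF4GI seen as loss of FRET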
[8] = OVCAR8 cell viability loss – plate reader, dry powder samples, PAX8 project, dose response (AID 743197); type: functional, cell-based; conditions: OVCAR-8
Paired box protein Pax-8 = Paired box protein Pax-8 (Homo sapiens, UniProt Q06710); test: PAX8 transcriptional activity inhibition in RMG-I – RMG-I cells, luciferase, cherry-pick, dose response (AID 687027); type: functional, cell-based;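 note: luciferase reporter driven by Pax8 target thyroperoxidase promoter measured by SteadyGlo luminescence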
[9] = intracellular Trypanosoma cruzi inhibitors in host cells – cell-based, plate reader, cherry-pick samples, set 3, dose response (AID 651818); type: functional;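 note: compounds incubated with infected cells for about four days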
[10] = target: T5, Zinc finger protein mex-5 (Caenorhabditis elegans, UniProt Q9XUB2); test: potency of MEX-5 RNA-binding blockers – biochemical, C. elegans, fluorescence polarization, dose response (AID 1960)
T5 sequence (Q9XUB2 whole entry): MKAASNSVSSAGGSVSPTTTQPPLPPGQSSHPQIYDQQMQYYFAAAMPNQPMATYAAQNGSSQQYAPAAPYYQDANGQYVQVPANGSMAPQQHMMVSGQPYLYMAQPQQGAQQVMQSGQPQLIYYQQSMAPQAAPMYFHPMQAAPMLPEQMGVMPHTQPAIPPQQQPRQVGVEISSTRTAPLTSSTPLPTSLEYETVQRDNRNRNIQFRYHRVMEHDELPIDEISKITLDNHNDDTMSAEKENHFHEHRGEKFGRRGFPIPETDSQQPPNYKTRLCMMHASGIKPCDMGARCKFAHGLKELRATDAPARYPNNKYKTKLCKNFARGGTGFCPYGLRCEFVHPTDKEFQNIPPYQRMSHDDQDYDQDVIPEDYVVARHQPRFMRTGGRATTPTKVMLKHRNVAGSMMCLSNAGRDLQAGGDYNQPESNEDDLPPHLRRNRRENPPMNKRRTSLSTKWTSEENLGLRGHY

[11] = target: T6, RNA-binding protein pos-1 (Caenorhabditis elegans, UniProt G5EF15); test: disruptors of C. elegans POS-1 RNA interaction – biochemical, fluorescence polarization, dose response (AID 1964);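 note: purified POS-1 fused to maltose binding protein made in E. coli; potency of compounds blocking POS-1 binding to fluorescent RNA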
T6 sequence (G5EF15 whole entry): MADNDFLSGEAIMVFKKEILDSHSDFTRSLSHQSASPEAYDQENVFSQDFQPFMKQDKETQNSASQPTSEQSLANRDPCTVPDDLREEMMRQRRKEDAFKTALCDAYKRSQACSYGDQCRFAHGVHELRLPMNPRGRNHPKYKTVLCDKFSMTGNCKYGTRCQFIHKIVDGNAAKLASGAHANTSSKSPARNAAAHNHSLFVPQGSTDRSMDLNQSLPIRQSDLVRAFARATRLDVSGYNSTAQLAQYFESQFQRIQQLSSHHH

cells [12] = type: functional, cell-based
cells [13] = type: functional, cell-based; remark: listed apart in the source

Sequence of Paired box protein Pax-8 (Q06710 whole entry): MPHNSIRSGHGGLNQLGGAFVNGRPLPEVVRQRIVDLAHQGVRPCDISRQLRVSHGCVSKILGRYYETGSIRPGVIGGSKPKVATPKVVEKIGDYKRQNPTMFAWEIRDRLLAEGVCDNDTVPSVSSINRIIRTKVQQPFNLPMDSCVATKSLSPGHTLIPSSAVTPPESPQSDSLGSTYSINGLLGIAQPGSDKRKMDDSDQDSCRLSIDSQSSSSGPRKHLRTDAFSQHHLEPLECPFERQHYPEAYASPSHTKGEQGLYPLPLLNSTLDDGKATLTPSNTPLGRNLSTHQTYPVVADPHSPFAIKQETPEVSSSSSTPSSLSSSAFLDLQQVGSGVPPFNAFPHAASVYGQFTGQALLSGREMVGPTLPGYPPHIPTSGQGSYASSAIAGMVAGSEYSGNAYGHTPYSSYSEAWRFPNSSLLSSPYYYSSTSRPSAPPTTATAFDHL
Sequence of Estrogen receptor beta (Q92731 whole entry): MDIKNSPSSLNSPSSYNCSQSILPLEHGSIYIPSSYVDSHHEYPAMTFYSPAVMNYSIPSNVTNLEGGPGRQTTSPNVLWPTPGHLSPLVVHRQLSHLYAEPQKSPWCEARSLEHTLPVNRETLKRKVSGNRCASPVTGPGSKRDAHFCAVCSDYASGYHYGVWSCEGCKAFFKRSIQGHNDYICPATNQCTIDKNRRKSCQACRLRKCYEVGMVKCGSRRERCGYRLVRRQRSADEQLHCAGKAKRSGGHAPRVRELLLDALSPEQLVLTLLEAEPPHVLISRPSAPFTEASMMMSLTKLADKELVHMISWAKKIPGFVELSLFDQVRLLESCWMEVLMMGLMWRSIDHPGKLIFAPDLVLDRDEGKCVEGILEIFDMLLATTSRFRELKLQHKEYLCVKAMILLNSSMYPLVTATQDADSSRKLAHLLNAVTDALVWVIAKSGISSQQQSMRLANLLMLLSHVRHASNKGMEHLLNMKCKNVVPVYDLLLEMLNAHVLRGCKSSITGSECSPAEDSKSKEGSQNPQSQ
Sequence of Eukaryotic translation initiation factor 4E (P63073 whole entry): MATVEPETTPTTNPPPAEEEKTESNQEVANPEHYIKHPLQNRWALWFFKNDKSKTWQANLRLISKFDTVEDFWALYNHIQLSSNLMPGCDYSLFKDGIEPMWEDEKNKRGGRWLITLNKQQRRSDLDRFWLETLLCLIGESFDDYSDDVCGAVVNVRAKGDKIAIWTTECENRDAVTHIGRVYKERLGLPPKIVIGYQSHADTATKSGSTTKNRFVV

CCOc1ccc2nc(N3CCC(C(=O)NC4CCCCC4)CC3)sc2c1
CC50 [1]: > 40 µM (active)

CCN(CC)C1=CC(=O)OC12CCCCC2
IC50 (Estrogen receptor beta): > 50 µM (not active)

COc1ccccc1NC(=O)c1cc2ccccc2o/c1=N\O
EC50 [2]: > 20 µM (not active) | EC50 [3]: > 20 µM (not active)

CCCCN1CC(=O)N2[C@@H]3c4cc(Br)ccc4OC[C@@H]3[C@H](C(=O)OCC)[C@]2(C)C1=O
EC50 [4]: > 99 µM (inactive) | EC50 [5]: 39.6 µM (inactive)

O=C1C(C23CC4CC(CC(C4)C2)C3)C(=O)N(c2ccccc2)N1c1ccccc1
Ki (fMet-Leu-Phe receptor): 11.5 µM (active)

O=C1CCCC(O)=C1C(C#Cc1ccccc1)C1=C(O)CCCC1=O
AC50 [6]: 6.78 µM (active) | EC50 (Protein RecA): > 380 µM (inconclusive) | Ki (fMet-Leu-Phe receptor): > 66.7 µM (inactive) | IC50 [7]: > 64 µM (inactive)

O=C(Cn1c(=O)oc2ccccc21)N1CCN(c2ccccc2)CC1
Ki (fMet-Leu-Phe receptor): > 66.7 µM (inactive)

COc1ccc(CN(C)C[C@@H]2OCCCC[C@@H](C)Oc3ccc(NC(=O)Nc4ccc(C(F)(F)F)cc4)cc3C(=O)N([C@@H](C)CO)C[C@H]2C)cc1
AC50 [8]: > 70 µM (inactive) | AC50 (Paired box protein Pax-8): 8.11 µM (active)

O=C(Nc1ccc(CN2CCOCC2)cc1)c1ccc(-c2ccc(Br)cc2)o1
EC50 [2]: 9.91 µM (active) | EC50 [3]: 13.9 µM (active)

COc1ccc(OC)c(C(=O)c2nc3c(n2O)CCCCC3)c1
Ki (fMet-Leu-Phe receptor): 49.6 µM (inactive)

COc1ccc(NC(=O)Nc2ccc3c(c2)CC(=O)N([C@H](C)CO)C[C@@H](C)[C@@H](CN(C)Cc2ccc(C(=O)Nc4ccccc4N)cc2)O3)cc1
AC50 [9]: 2.16 µM (active)

C[C@H](CO)N1C[C@H](C)[C@@H](CN(C)Cc2ccc(C(F)(F)F)cc2)Oc2ccc(NS(=O)(=O)c3ccc(F)cc3)cc2C1=O
AC50 [9]: 3.48 µM (active)

C[C@@H]1CCCCO[C@@H](CN(C)Cc2ccc(C(=O)Nc3ccccc3N)cc2)[C@@H](C)CN([C@H](C)CO)C(=O)c2cc(NS(C)(=O)=O)ccc2O1
AC50 [9]: 4.5 µM (active)

C[C@@H]1CN([C@H](C)CO)C(=O)c2cc(NC(=O)Nc3cccc4ccccc34)ccc2O[C@@H]1CN(C)Cc1ccc(C(F)(F)F)cc1
AC50 [9]: 2.44 µM (active)

Cc1ccc(Cn2c(C(CO)Nc3nc(-c4ccc(Cl)c([N+](=O)[O-])c4)cs3)nc3ccccc32)cc1 (centres undefined)
CC50 [1]: 37.3 µM (active)

CC(=O)c1sc2nc(-c3cccs3)cc(C(F)(F)F)c2c1N
EC50 [10]: > 300 µM (not active) | EC50 [11]: 45.9 µM (active) | EC50 [4]: > 99 µM (inactive) | EC50 [5]: 22.3 µM (inactive)

CCOC(=O)c1sc(N(Cc2ccccc2)C(=O)COC(=O)c2ccc(O)cc2)nc1C
EC50 (cells [12]): > 350 µM (not active) | EC50 (cells [13]): 175 µM (active)

C[C@@H]1CN([C@H](C)CO)C(=O)c2cccc(NC(=O)Nc3ccc(C(F)(F)F)cc3)c2O[C@@H]1CN(C)Cc1ccc(Oc2ccccc2)cc1
AC50 [9]: 7.23 µM (active)

O=S(=O)(c1ccccc1)N1CCCCN2[C@H](CO)[C@H](c3ccc(-c4ccccc4F)cc3)[C@H]2C1
AC50 [8]: > 70 µM (inactive) | AC50 (Paired box protein Pax-8): 33.7 µM (active)

O=C1CC(c2ccc(S(=O)(=O)NCCOc3ccccc3)cc2)CN1 (centres undefined)
IC50 (Estrogen receptor beta): > 50 µM (not active)

Cc1cccn2c(=O)c3cc(C(=O)N4CCC5(CC4)OCCO5)n(C)c3nc12
EC50 [2]: 8.42 µM (active) | EC50 [3]: 4.7 µM (active)

Clc1ccc(-c2csc3ncnc(N4CCc5ccccc5C4)c23)cc1
CC50 [1]: > 40 µM (active)

O=C(C1=C(O)C(=O)N(CCN2CCOCC2)C1c1ccccc1)c1cccs1 (centres undefined)
Ki (fMet-Leu-Phe receptor): > 66.7 µM (inactive)

COc1ccccc1/C=C/C(=O)NCC(=O)N/N=C/c1cc(Br)ccc1OC
CC50 [1]: 27.5 µM (active)

CCOC(=O)[C@H]1[C@H]2COc3ccccc3[C@@H]2N2C(=O)CN(Cc3ccc(C)cc3)C(=O)[C@@]12C
EC50 [4]: > 99 µM (inactive) | EC50 [5]: > 99 µM (inactive)
